Results on 29 molecules are retold here after US11518760B2 (Liverpool School of Tropical Medicine, priority 2017, dated 2022).

Bounds are passed on as bounds.

The first assay relates to C6/36 Aedes albopictus cell line infected with Wolbachia pipientis (Wolbachia strain wAlbB). Put plainly: In vitro insect cell line assay (anti-Wolbachia screen, SYTO 11 high content imaging). Format: cell-based. As to conditions: 168 h; C6/36 Aedes albopictus cells infected with Wolbachia pipientis wAlbB, 7 days incubation, SYTO 11 imaging; read-out: In vitro anti-Wolbachia activity. In short, it runs like this:
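SYTO 11 staining (15 min), high-content imaging and texture analysis were the read-out on day 7. Before that, C6/36 mosquito cells carrying Wolbachia strain wAlbB were incubated at 26 °C with test compound at 5 μM final, alongside DMSO-only control wells.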
`FC(F)OC1CCCN(c2nc(NCc3cccnc3C(F)(F)F)c3cccnc3n2)C1` (centres unmarked) [Example 292, 2-(3-(difluoromethoxy)piperidin-1-yl)-N-((2-(trifluoromethyl)pyridin-3-yl)methyl)pyrido[2,3-d]pyrimidin-4-amine]: the EC50 was under 0.01 nM. Same read-out and setting: the same measure for `CC(C)Nc1nc(N2CCC2c2ccccc2C(F)(F)F)c2cccnc2n1` (centres unmarked) [Example 183, N-isopropyl-4-(2-(2-(trifluoromethyl)phenyl)azetidin-1-yl)pyrido[2,3-d]pyrimidin-2-amine]: 1 to 10 nM; for `FC(F)(F)c1ccccc1CNc1nc(N2CCCC2)nc2ccsc12` [Example 93, 2-(pyrrolidin-1-yl)-N-(2-(trifluoromethyl)benzyl)thieno[3,2-d]pyrimidin-4-amine]: 100 to 1000 nM. The same measure, in the same setting: under `FC1CCN(c2nc(NCc3cccnc3C(F)(F)F)c3cccnc3n2)CC1` [Example 195, 2-(4-fluoropiperidin-1-yl)-N-((2-(trifluoromethyl)pyridin-3-yl)methyl)pyrido[2,3-d]pyrimidin-4-amine] stands 1 to 10 nM; under `FC(F)(F)c1ncccc1CNc1nc(N2CCOC(C3CC3)C2)nc2ncccc12` (centres unmarked) [Example 278, 2-(2-cyclopropylmorpholino)-N-((2-(trifluoromethyl)pyridin-3-yl)methyl)pyrido[2,3-d]pyrimidin-4-amine], 0.01 to 1 nM; under `C[C@H]1COCCN1c1nc(NCc2cccnc2C(F)(F)F)c2cccnc2n1` [Example 210, (S)-2-(3-methylmorpholino)-N-((2-(trifluoromethyl)pyridin-3-yl)methyl)pyrido[2,3-d]pyrimidin-4-amine], 1 to 10 nM. On the same count and under the same terms, the same measure for `CS(=O)(=O)C1CCN(c2nc(NCc3ccccc3C(F)(F)F)c3cccnc3n2)CC1` [Example 243, 2-(4-(methylsulfonyl)piperidin-1-yl)-N-(2-(trifluoromethyl)benzyl)pyrido[2,3-d]pyrimidin-4-amine]: 100 to 1000 nM; for `CC(C)Nc1nc(NCc2ccccc2)c2sccc2n1` [Example 12, N^4-benzyl-N^2-isopropylthieno[3,2-d]pyrimidine-2,4-diamine]: 1000 to 100000 nM; for `FC(F)(F)OC1CCN(c2nc(NCc3cccnc3C(F)(F)F)c3cccnc3n2)CC1` [Example 273, 2-(4-(trifluoromethoxy)piperidin-1-yl)-N-((2-(trifluoromethyl)pyridin-3-yl)methyl)pyrido[2,3-d]pyrimidin-4-amine]: under 0.01 nM.

In the case of `FC(F)(F)c1cccc(CNc2ncnc3ccsc23)c1` [Example 81], the EC50 was 1000 to 100000 nM.

For the molecule `CC(C)Nc1nc(NCc2cccnc2C(F)(F)F)c2sccc2n1` [Example 153, N^2-isopropyl-N^4-((2-(trifluoromethyl)pyridin-3-yl)methyl)thieno[3,2-d]pyrimidine-2,4-diamine], the EC50 fell in the range of 10 to 100 nM. The same measure, in the same setting: the same measure for `N#CC1CN(c2nc(NCc3ccccc3C(F)(F)F)c3cccnc3n2)C1` [Example 245, 1-(4-((2-(trifluoromethyl)benzyl)amino)pyrido[2,3-d]pyrimidin-2-yl)azetidine-3-carbonitrile]: 1 to 10 nM. On to `CC1CN(c2nc(NCc3ccccc3C(F)(F)F)c3cccnc3n2)CCO1` (centres unmarked) [Example 248, 2-(2-methylmorpholino)-N-(2-(trifluoromethyl)benzyl)pyrido[2,3-d]pyrimidin-4-amine], for which the EC50 lay in the range of 0.01 to 1 nM. Same read-out and setting: under `N#Cc1ccccc1CNc1nc(Cl)nc2ccsc12` [Example 104, 2-(((2-chlorothieno[3,2-d]pyrimidin-4-yl)amino)methyl)benzonitrile] stands 100 to 1000 nM; under `C[C@@H]1COCCN1c1nc(N2CCC2c2ccccc2C(F)(F)F)c2cccnc2n1` (stereo partly drawn) [Example 290, (3R)-3-methyl-4-(4-(2-(2-(trifluoromethyl)phenyl)azetidin-1-yl)pyrido[2,3-d]pyrimidin-2-yl)morpholine], 0.01 to 1 nM.

Take `CC(C)S(=O)(=O)c1nc(NCc2cccnc2C(F)(F)F)c2cccnc2n1` [Example 179, 2-(isopropylsulfonyl)-N-((2-(trifluoromethyl)pyridin-3-yl)methyl)pyrido[2,3-d]pyrimidin-4-amine]: the EC50 was 10 to 100 nM. Regarding `CC(C)Nc1nc(NCc2ccc(C(F)(F)F)nc2)c2ncccc2n1` [Example 125, N^2-isopropyl-N^4-((6-(trifluoromethyl)pyridin-3-yl)methyl)pyrido[3,2-d]pyrimidine-2,4-diamine], the EC50 fell in the range of 1000 to 100000 nM. For `CC(C)Nc1nc(NCc2c(Cl)cccc2Cl)c2sccc2n1` [Example 27, N^4-(2,6-dichlorobenzyl)-N-isopropylthieno[3,2-d]pyrimidine-2,4-diamine], the EC50 was in the range of 1000 to 100000 nM. On the same count and under the same terms, the same measure for `FC(F)(F)c1ncccc1CNc1nc(N2CCCC(C(F)(F)F)C2)nc2ncccc12` (centres unmarked) [Example 249, 2-(3-(trifluoromethyl)piperidin-1-yl)-N-((2-(trifluoromethyl)pyridin-3-yl)methyl)pyrido[2,3-d]pyrimidin-4-amine]: under 0.01 nM; for `CC(C)Nc1nc(NCc2cccnc2C(F)(F)F)c2cccnc2n1` [Example 150, N^2-isopropyl-N^4-((2-(trifluoromethyl)pyridin-3-yl)methyl)pyrido[2,3-d]pyrimidine-2,4-diamine]: 10 to 100 nM. Same read-out and setting: the same measure for `CC(C)Nc1nc(NCc2ccccc2S(C)(=O)=O)c2cccnc2n1` [Example 127, N^2-isopropyl-N^4-(2-(methylsulfonyl)benzyl)pyrido[2,3-d]pyrimidine-2,4-diamine]: 100 to 1000 nM; for `CC1COCCN1c1nc(NCc2ccccc2C(F)(F)F)c2cncnc2n1` (centres unmarked) [Example 307, 2-(3-methylmorpholino)-N-(2-(trifluoromethyl)benzyl)pyrimido[4,5-d]pyrimidin-4-amine]: 1000 to 100000 nM. On the same count and under the same terms, under `C[C@H]1COCCN1c1nc(N2CCC2c2ccccc2C(F)(F)F)c2cccnc2n1` (stereo partly drawn) [Example 291, (3S)-3-methyl-4-(4-(2-(2-(trifluoromethyl)phenyl)azetidin-1-yl)pyrido[2,3-d]pyrimidin-2-yl)morpholine] stands 0.01 to 1 nM; under `CC(C)Nc1nc(NCc2ccc(C#N)cc2)c2cccnc2n1` [Example 126, N^4-(4-cyanobenzyl)-N^2-isopropylpyrido[2,3-d]pyrimidine-2,4-diamine], 100 to 1000 nM. `CC(C)Nc1nc(N(C)Cc2cccnc2C(F)(F)F)c2cccnc2n1` [Example 160, N^2-isopropyl-N^4-methyl-N4-((2-(trifluoromethyl)pyridin-3-yl)methyl)pyrido[2,3-d]pyrimidine-2,4-diamine]: the EC50 is 10 to 100 nM. Same read-out and setting: the same measure for `FC1(F)CCN(Cc2nc(NCc3cccnc3C(F)(F)F)c3cccnc3n2)CC1` [Example 228, 2-((4,4-difluoropiperidin-1-yl)methyl)-N-((2-(trifluoromethyl)pyridin-3-yl)methyl)pyrido[2,3-d]pyrimidin-4-amine]: 100 to 1000 nM.

For the molecule `N#CC1CCCN(c2nc(NCc3cccnc3C(F)(F)F)c3cccnc3n2)C1` (centres unmarked) [Example 251], the EC50 was 1 to 10 nM.

In the case of `C[C@@H]1[C@@H](C)OCCN1c1nc(NCc2cccnc2C(F)(F)F)c2cccnc2n1` [Example 270, 2-((2R,3R)-2,3-dimethylmorpholino)-N-((2-(trifluoromethyl)pyridin-3-yl)methyl)pyrido[2,3-d]pyrimidin-4-amine], the EC50 lay in the range of 1 to 10 nM.

The assay is the same for the next values; noted with them: C6/36 Aedes albopictus cells infected with Wolbachia pipientis wAlbB, 7 days incubation, SYTO 11 imaging; read-out: In vitro anti-Wolbachia activity.
Regarding “2-((3,3-difluoropyrrolidin-1-yl)methyl)-N-((2-(trifluoromethyl)pyridin-3-yl)methyl)pyrido[2,3-d]pyrimidin-4-amine [Example 225]”, the EC50 fell in the range of 1000 to 100000 nM.
